Test results published in paper PMC10506422 (Biomedicine & pharmacotherapy = Biomedecine & …, 2022).

Target: T1, ABCG2 (Homo sapiens, UniProt Q9UNQ0)
T1 sequence (Q9UNQ0 1-655): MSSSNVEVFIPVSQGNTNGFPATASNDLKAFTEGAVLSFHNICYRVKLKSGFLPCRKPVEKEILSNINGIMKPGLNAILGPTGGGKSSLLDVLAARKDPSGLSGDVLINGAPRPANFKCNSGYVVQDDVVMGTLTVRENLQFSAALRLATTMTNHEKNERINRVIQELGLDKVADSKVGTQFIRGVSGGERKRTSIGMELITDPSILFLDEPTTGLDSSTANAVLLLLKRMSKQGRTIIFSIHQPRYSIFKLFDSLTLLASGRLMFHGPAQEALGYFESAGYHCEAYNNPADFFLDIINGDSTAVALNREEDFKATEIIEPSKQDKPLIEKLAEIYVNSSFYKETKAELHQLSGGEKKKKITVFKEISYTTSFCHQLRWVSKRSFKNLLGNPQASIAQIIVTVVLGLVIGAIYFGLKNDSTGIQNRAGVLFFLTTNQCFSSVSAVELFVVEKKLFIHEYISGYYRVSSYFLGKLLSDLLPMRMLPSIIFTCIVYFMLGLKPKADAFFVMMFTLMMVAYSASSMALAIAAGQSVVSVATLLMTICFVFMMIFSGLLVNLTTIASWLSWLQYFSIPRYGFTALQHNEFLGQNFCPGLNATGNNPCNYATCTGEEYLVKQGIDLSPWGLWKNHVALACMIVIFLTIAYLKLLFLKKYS
Test: fluorescent substrate efflux/accumulation by flow cytometry
Type: cell-based

Question: Which “fluorescent substrate efflux/accumulation by flow cytometry (1 μM PhA)” value does the source give for `C=Cc1c(C)c2cc3nc(c4c5[nH]c(cc6nc(cc1[nH]2)C(C)=C6CC)c(C)c5C(=O)[C@@H]4C(=O)OC)[C@@H](CCC(=O)O)[C@@H]3C` [pheophorbide A] here?
Answer: The intracellular accumulation of pheophorbide A (PhA), a known fluorescent substrate drug of ABCG2, was determined
